In PubChem BioAssay AID248 (DTP/NCI, 2004):
Where “and” joins values, the source holds several entries; their conditions need not be identical. Equal values may be shown once. Toxic doses and inconclusive results are not listed.

Test system: L1210 leukemia ip in BDF1 mice, survival T/C
Experiment: NCI In Vivo Anticancer Drug Screen. Data for tumor model L1210 Leukemia (intraperitoneal) in B6D2F1 (BDF1) mice
Conditions: endpoint: mean survival time, higher = longer survival
Summary of the method: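 Mice bearing the transplanted tumor received compound or vehicle. Survival of the treated group was divided by that of the vehicle-treated control group to give the ratio.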

[1] = dose: 100.0 mg/kg/injection, schedule: Q01DX001 (ip), vehicle: carboxymethylcellulose (CMC)
[2] = dose: 200.0 mg/kg/injection, schedule: Q01DX001 (ip), vehicle: carboxymethylcellulose (CMC)
[3] = dose: 400.0 mg/kg/injection, schedule: Q01DX001 (ip), vehicle: carboxymethylcellulose (CMC)
[4] = dose: 100.0 mg/kg/injection, schedule: Q01DX001 (ip), vehicle: saline
[5] = dose: 200.0 mg/kg/injection, schedule: Q01DX001 (ip), vehicle: saline
[6] = dose: 400.0 mg/kg/injection, schedule: Q01DX001 (ip), vehicle: saline
[7] = dose: 75.0 mg/kg/injection, schedule: Q01DX001 (ip), vehicle: saline
[8] = dose: 100.0 mg/kg/injection, schedule: Q04DX003 (ip), vehicle: saline
[9] = dose: 150.0 mg/kg/injection, schedule: Q01DX001 (ip), vehicle: saline
[10] = dose: 300.0 mg/kg/injection, schedule: Q01DX001 (ip), vehicle: saline
[11] = dose: 10.0 mg/kg/injection, schedule: Q01DX009 (ip), vehicle: saline
[12] = dose: 10.0 mg/kg/injection, schedule: Q04DX003 (ip), vehicle: saline
[13] = dose: 20.0 mg/kg/injection, schedule: Q01DX009 (ip), vehicle: saline
[14] = dose: 20.0 mg/kg/injection, schedule: Q04DX003 (ip), vehicle: saline
[15] = dose: 40.0 mg/kg/injection, schedule: Q04DX003 (ip), vehicle: saline
[16] = dose: 100.0 mg/kg/injection, schedule: Q04DX003 (ip), vehicle: Klucel (hydroxypropylcellulose) (HPC)
[17] = dose: 100.0 mg/kg/injection, schedule: Q01DX009 (ip), vehicle: saline with Tween-80
[18] = dose: 200.0 mg/kg/injection, schedule: Q01DX009 (ip), vehicle: saline with Tween-80

CCCCCCCCCC(=O)N(C(C)C)C(C)C
T/C [1]: 100 % of control
T/C (dose: 100.0 mg/kg/injection, schedule: Q01DX009 (ip), vehicle: carboxymethylcellulose (CMC)): 96 % of control and 106 % of control
T/C (dose: 100.0 mg/kg/injection, schedule: Q04DX003 (ip), vehicle: carboxymethylcellulose (CMC)): 93 % of control
T/C [2]: 94 % of control
T/C (dose: 200.0 mg/kg/injection, schedule: Q01DX009 (ip), vehicle: carboxymethylcellulose (CMC)): 94 % of control and 100 % of control
T/C (dose: 200.0 mg/kg/injection, schedule: Q04DX003 (ip), vehicle: carboxymethylcellulose (CMC)): 95 % of control
T/C [3]: 96 % of control
T/C (dose: 400.0 mg/kg/injection, schedule: Q01DX009 (ip), vehicle: carboxymethylcellulose (CMC)): 95 % of control
T/C (dose: 400.0 mg/kg/injection, schedule: Q04DX003 (ip), vehicle: carboxymethylcellulose (CMC)): 92 % of control

CCCCCCSCCO
T/C [4]: 94 % of control
T/C [5]: 94 % of control
T/C [6]: 93 % of control

CC(=O)Nc1ccc(Oc2ccc(NC(C)=O)cc2)cc1
T/C (dose: 25.0 mg/kg/injection, schedule: Q04DX002 (ip), vehicle: saline): 90 % of control
T/C (dose: 50.0 mg/kg/injection, schedule: Q04DX002 (ip), vehicle: saline): 97 % of control
T/C (dose: 100.0 mg/kg/injection, schedule: Q04DX002 (ip), vehicle: saline): 117 % of control

CN(N)C=O
T/C [7]: 100 % of control
T/C [8]: 108 % of control
T/C [9]: 96 % of control
T/C [10]: 98 % of control

COc1cc([N+](=O)[O-])ccc1S(=O)(=O)F
T/C (dose: 100.0 mg/kg/injection, schedule: Q01DX009 (ip), vehicle: gum acacia): 95 % of control
T/C (dose: 200.0 mg/kg/injection, schedule: Q01DX009 (ip), vehicle: gum acacia): 98 % of control
T/C (dose: 400.0 mg/kg/injection, schedule: Q01DX009 (ip), vehicle: gum acacia): 90 % of control

COC1C(OC(N)=O)C(O)C(Oc2ccc3c(O)c(NC(=O)c4ccc(O)c(CC=C(C)C)c4)c(=O)oc3c2C)OC1(C)C (configuration not stated)
T/C (dose: 50.0 mg/kg/injection, schedule: Q01DX Z (ip), vehicle: saline): 91 % of control
T/C (dose: 100.0 mg/kg/injection, schedule: Q01DX Z (ip), vehicle: saline): 91 % of control
T/C (dose: 200.0 mg/kg/injection, schedule: Q01DX Z (ip), vehicle: saline): 91 % of control

CC(O)c1cccnc1 (configuration not stated)
T/C [11]: 99 % of control
T/C [12]: 97 % of control
T/C [13]: 99 % of control
T/C [14]: 105 % of control
T/C (dose: 40.0 mg/kg/injection, schedule: Q01DX009 (ip), vehicle: saline): 97 % of control
T/C [15]: 100 % of control

O=c1c(Cl)c(C(Cl)(Cl)Cl)[nH]c2ccccc12
T/C (dose: 25.0 mg/kg/injection, schedule: Q01DX001 (ip), vehicle: saline with Tween-80): 104 % of control
T/C (dose: 50.0 mg/kg/injection, schedule: Q01DX001 (ip), vehicle: saline with Tween-80): 106 % of control

CC1(C)S[C@@H]2[C@H](NC=O)C(=O)N2[C@H]1C(=O)OCc1ccccc1
T/C (dose: 75.0 mg/kg/injection, schedule: Q01DX001 (ip), vehicle: carboxymethylcellulose (CMC)): 90 % of control
T/C (dose: 150.0 mg/kg/injection, schedule: Q01DX001 (ip), vehicle: carboxymethylcellulose (CMC)): 86 % of control

CCCCCCCCCC[n+]1cccc(C#N)c1
T/C (dose: 5.0 mg/kg/injection, schedule: Q01DX009 (ip), vehicle: saline): 109 % of control
T/C (dose: 10.0 mg/kg/injection, schedule: Q01DX001 (ip), vehicle: saline): 100 % of control
T/C [11]: 98 % of control
T/C [12]: 98 % of control
T/C (dose: 20.0 mg/kg/injection, schedule: Q01DX001 (ip), vehicle: saline): 95 % of control
T/C [13]: 93 % of control
T/C [14]: 93 % of control
T/C (dose: 40.0 mg/kg/injection, schedule: Q01DX001 (ip), vehicle: saline): 93 % of control
T/C [15]: 94 % of control

O=C(/C(=C/c1ccccc1)CN1CCOCC1)c1ccccc1
T/C [16]: 96 % of control

O=[N+]([O-])c1cccc(/C=C/C=C/c2ccc(S(=O)(=O)F)cc2Cl)c1
T/C [17]: 100 % of control
T/C (dose: 100.0 mg/kg/injection, schedule: Q04DX003 (ip), vehicle: saline with Tween-80): 94 % of control
T/C [18]: 93 % of control
T/C (dose: 200.0 mg/kg/injection, schedule: Q04DX003 (ip), vehicle: saline with Tween-80): 95 % of control
T/C (dose: 400.0 mg/kg/injection, schedule: Q01DX009 (ip), vehicle: saline with Tween-80): 91 % of control
T/C (dose: 400.0 mg/kg/injection, schedule: Q04DX003 (ip), vehicle: saline with Tween-80): 90 % of control

CCCCNC(=O)C1CCCC(C(=O)NCCCC)C1 (configuration not stated)
T/C (dose: 75.0 mg/kg/injection, schedule: Q01DX009 (ip), vehicle: saline): 96 % of control
T/C (dose: 150.0 mg/kg/injection, schedule: Q01DX009 (ip), vehicle: saline): 102 % of control
T/C (dose: 300.0 mg/kg/injection, schedule: Q01DX009 (ip), vehicle: saline): 87 % of control

O=CC1CC2CCC1C2 (configuration not stated)
T/C [4]: 116 % of control
T/C [5]: 91 % of control
T/C [6]: 96 % of control

Cc1cccn2c(=O)c(/C=N\NC(N)=S)c(Cl)nc12
T/C [1]: 105 % of control
T/C [2]: 96 % of control
T/C [3]: 94 % of control

CNc1nnnn1Cc1ccccc1
T/C [8]: 105 % of control
T/C (dose: 200.0 mg/kg/injection, schedule: Q04DX003 (ip), vehicle: saline): 94 % of control
T/C (dose: 400.0 mg/kg/injection, schedule: Q04DX003 (ip), vehicle: saline): 97 % of control

CCOC(=O)CCC(NC(=O)c1ccc(N(C)S(=O)(=O)c2ccc(C)cc2)c(F)c1)C(=O)OCC (configuration not stated)
T/C [7]: 100 % of control
T/C (dose: 75.0 mg/kg/injection, schedule: Q04DX003 (ip), vehicle: saline): 103 % of control
T/C [9]: 98 % of control
T/C (dose: 150.0 mg/kg/injection, schedule: Q04DX003 (ip), vehicle: saline): 95 % of control
T/C [10]: 96 % of control
T/C (dose: 300.0 mg/kg/injection, schedule: Q04DX003 (ip), vehicle: saline): 103 % of control

CN(Cc1cnc2nc(N)nc(N)c2n1)c1ccc(C(=O)NC(CCC(=O)O)C(=O)O)cc1C(F)(F)F (configuration not stated)
T/C (dose: 5.0 mg/kg/injection, schedule: Q01DX009 (ip), vehicle: sodium bicarbonate): 158 % of control
T/C (dose: 10.0 mg/kg/injection, schedule: Q01DX009 (ip), vehicle: sodium bicarbonate): 168 % of control

O=C(COCC(=O)N/N=C/c1ccccc1O)N/N=C/c1ccccc1O
T/C (dose: 100.0 mg/kg/injection, schedule: Q01DX001 (ip), vehicle: Klucel (hydroxypropylcellulose) (HPC)): 93 % of control
T/C (dose: 100.0 mg/kg/injection, schedule: Q01DX009 (ip), vehicle: Klucel (hydroxypropylcellulose) (HPC)): 98 % of control and 103 % of control
T/C (dose: 100.0 mg/kg/injection, schedule: Q04DX002 (ip), vehicle: Klucel (hydroxypropylcellulose) (HPC)): 109 % of control
T/C [16]: 110 % of control
T/C (dose: 200.0 mg/kg/injection, schedule: Q01DX001 (ip), vehicle: Klucel (hydroxypropylcellulose) (HPC)): 92 % of control
T/C (dose: 200.0 mg/kg/injection, schedule: Q01DX009 (ip), vehicle: Klucel (hydroxypropylcellulose) (HPC)): 94 % of control and 98 % of control
T/C (dose: 200.0 mg/kg/injection, schedule: Q04DX002 (ip), vehicle: Klucel (hydroxypropylcellulose) (HPC)): 91 % of control
T/C (dose: 200.0 mg/kg/injection, schedule: Q04DX003 (ip), vehicle: Klucel (hydroxypropylcellulose) (HPC)): 108 % of control
T/C (dose: 400.0 mg/kg/injection, schedule: Q01DX001 (ip), vehicle: Klucel (hydroxypropylcellulose) (HPC)): 91 % of control
T/C (dose: 400.0 mg/kg/injection, schedule: Q01DX009 (ip), vehicle: Klucel (hydroxypropylcellulose) (HPC)): 95 % of control and 87 % of control
T/C (dose: 400.0 mg/kg/injection, schedule: Q04DX002 (ip), vehicle: Klucel (hydroxypropylcellulose) (HPC)): 100 % of control
T/C (dose: 400.0 mg/kg/injection, schedule: Q04DX003 (ip), vehicle: Klucel (hydroxypropylcellulose) (HPC)): 105 % of control

CCN(CC)C(=O)/C=C\c1ccccc1
T/C (dose: 50.0 mg/kg/injection, schedule: Q01DX009 (ip), vehicle: saline with Tween-80): 102 % of control
T/C [17]: 102 % of control
T/C [18]: 112 % of control

CC(C)C1CCC2(CC1)CC(=O)N(CCC[N+](C)(C)C)C(=O)C2
T/C (dose: 50.0 mg/kg/injection, schedule: Q01DX001 (ip), vehicle: carboxymethylcellulose (CMC)): 96 % of control
